Assay results as given in patent US20250281424A1 (New York Blood Center, Inc, priority 2020, published 2025).

Target: T1, human PF4 (Homo sapiens, UniProt P02776)
T1 construct: PF4 is a 70 amino acid, lysine-rich 7.8 kDa platelet-specific protein; made in house; host or cells: Escherichia coli BL21DE3 pLysS (pT7-7) and/or Drosophila S2 cells
T1 sequence (P02776 32-101): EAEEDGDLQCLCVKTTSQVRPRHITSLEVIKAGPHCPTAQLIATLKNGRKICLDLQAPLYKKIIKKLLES
Assay: Inhibition of PF4 tetramer formation (BS3 cross-linking, SDS-PAGE)
Type: biochemical
Conditions: for inhibition at 1 µM: 1 μM inhibitor; for inhibition at 1 µM / inhibition at 3 µM / inhibition at 5 µM / inhibition at 10 µM: read-out: % inhibition of PF4 tetramer formation at single concentration of inhibitor; for inhibition at 3 µM: 3 μM inhibitor (column A); for inhibition at 5 µM: 5 μM inhibitor; for inhibition at 10 µM: 10 μM inhibitor (column A); for IC50: read-out: IC50 of PF4 tetramer formation inhibition
Outline: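 Recombinant human wild-type PF4 (E. coli-expressed, heparin-purified), 10 μg/ml in PBS, incubated with compound 15 min at 37° C or 60 min at room temperature, then cross-linked with 0.2 mM BS3 for 30 min at room temperature. Reducing 12% SDS-PAGE; bands quantified as % tetramer, trimer, dimer, monomer versus compound-free control.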

Compound | inhibition at 1 µM [%] | inhibition at 3 µM [%] | inhibition at 5 µM [%] | inhibition at 10 µM [%] | IC50 [µM]
CC(C)OC/C(O)=C1/C(=O)c2ccc(C(=O)c3ccc4c(c3)C(=O)/C(=C(/O)COC(C)C)C4=O)cc2C1=O [Example 380, 5-{1,3-dioxo-2-[2-(propan-2-yloxy)acetyl]-2,3-dihydro-1H-indene-5-carbonyl}-2-[2-(propan-2-yloxy)acetyl]-2,3-dihydro-1H-indene-1,3-dione] | 17 | 30 | – | – | –
O=C(O)CNC(=O)C1C(=O)c2ccc(C(=O)c3ccc4c(c3)C(=O)C(C(=O)NCC(=O)O)C4=O)cc2C1=O (stereo not drawn) [Example 309, 2-[(5-{2-[(carboxymethyl)carbamoyl]-1,3-dioxo-2,3-dihydro-1H-indene-5-carbonyl}-1,3-dioxo-2,3-dihydro-1H-inden-2-yl)formamido]acetic acid] | 20 | 32 | – | – | –
NCC(=O)C1C(=O)c2ccc(Oc3ccc4c(c3)C(=O)C(C(=O)CN)C4=O)cc2C1=O (stereo not drawn) [Example 326, 2-(2-aminoacetyl)-5-{[2-(2-aminoacetyl)-1,3-dioxo-2,3-dihydro-1H-inden-5-yl]oxy}-2,3-dihydro-1H-indene-1,3-dione] | 13 | 26 | – | – | –
CC(C)(C)OC(=O)N1CCCC[C@H]1C(=O)C1C(=O)c2ccc(-c3ccc4c(c3)C(=O)C(C(=O)[C@@H]3CCCCN3C(=O)OC(C)(C)C)C4=O)cc2C1=O (stereo partly drawn) [Example 212, tert-butyl (2S)-2-{2′-[(2S)-1-[(tert-butoxy)carbonyl]piperidine-2-carbonyl]-1,1′,3,3′-tetraoxo-1H,1′H,2H,2′H,3H,3′H-[5,5′-biindene]-2-carbonyl}piperidine-1-carboxylate] | – | – | 91 | 88 | 5.5
CCOCC(=O)C1C(=O)c2ccc(C(=O)c3ccc4c(c3)C(=O)C(C(=O)COCC)C4=O)cc2C1=O (stereo not drawn) [Example 229, 2-(2-ethoxyacetyl)-5-[2-(2-ethoxyacetyl)-1,3-dioxo-2,3-dihydro-1H-indene-5-carbonyl]-2,3-dihydro-1H-indene-1,3-dione] | 43 | 53 | – | – | –
CN(CC(=O)C1C(=O)c2ccc(C#Cc3ccc4c(c3)C(=O)C(C(=O)CN(C)C(=O)OC(C)(C)C)C4=O)cc2C1=O)C(=O)OC(C)(C)C (stereo not drawn) [Example 320, tert-butyl N-[2-(5-{2-[2-(2-{[(tert-butoxy)carbonyl](methyl)amino}acetyl)-1,3-dioxo-2,3-dihydro-1H-inden-5-yl]ethynyl}-1,3-dioxo-2,3-dihydro-1H-inden-2-yl)-2-oxoethyl]-N-methylcarbamate] | 12 | 26 | – | – | –
O=C(NC1CCC1)C1C(=O)c2ccc(S(=O)(=O)c3ccc4c(c3)C(=O)C(C(=O)NC3CCC3)C4=O)cc2C1=O (stereo not drawn) [Example 292, N-cyclobutyl-5-{[2-(cyclobutylcarbamoyl)-1,3-dioxo-2,3-dihydro-1H-inden-5-yl]sulfonyl}-1,3-dioxo-2,3-dihydro-1H-indene-2-carboxamide] | 47 | 100 | – | – | 1.26
COC(=O)N1CCC[C@H]1C(=O)C1C(=O)c2ccc(-c3ccc4c(c3)C(=O)C(C(=O)[C@@H]3CCCN3C(=O)OC)C4=O)cc2C1=O (stereo partly drawn) [Example 213, methyl (2S)-2-{2′-[(2S)-1-(methoxycarbonyl)pyrrolidine-2-carbonyl]-1,1′,3,3′-tetraoxo-1H,1′H,2H,2′H,3H,3′H-[5,5′-biindene]-2-carbonyl}pyrrolidine-1-carboxylate] | – | – | 87 | 89 | 4.8
O=C(c1ccc2c(c1)C(=O)C(C(=O)C1CCCS1(=O)=O)C2=O)c1ccc2c(c1)C(=O)C(C(=O)C1CCCS1(=O)=O)C2=O (stereo not drawn) [Example 371, 2-{5-[2-(1,1-dioxo-1λ^6-thiolane-2-carbonyl)-1,3-dioxo-2,3-dihydro-1H-indene-5-carbonyl]-1,3-dioxo-2,3-dihydro-1H-indene-2-carbonyl}-1λ^6-thiolane-1,1-dione] | 7 | 11 | – | – | –
